What was measured:
RORγt = target: T1, RORγt (Homo sapiens, UniProt P51449); test: RORγt cellular reporter gene detection assay; type: cell-based; conditions: 24 hrs; for EC50: HEK 293 cells co-transfected with pFN26A-RORγt-LBD and pG14.35, in presence of antagonist Ursolic acid, top concentration 50 μM; for Cellular Reporter Assay Amax: upper activation limit, HEK 293 cells, in presence of antagonist Ursolic acid;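 for Cellular Reporter Assay Amax: Ursolic Acid added as 5 µL of 20 µM medium per well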
T1 construct: The plasmid of pFN26A-RORγt-LBD and pG14.35 (Promega, Cat. No. E1370) were co-transfected into HEK 293 cells; expressed in transfected cells; host or cells: HEK 293 cells (Cat. No. GNHu18)
T1 sequence (P51449 269-508 limits assumed): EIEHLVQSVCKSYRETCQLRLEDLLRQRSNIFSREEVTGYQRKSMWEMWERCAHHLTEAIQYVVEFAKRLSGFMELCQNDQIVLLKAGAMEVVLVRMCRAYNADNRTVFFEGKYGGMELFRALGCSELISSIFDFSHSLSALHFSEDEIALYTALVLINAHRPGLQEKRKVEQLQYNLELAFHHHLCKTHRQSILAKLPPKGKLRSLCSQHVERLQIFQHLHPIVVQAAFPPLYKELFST
Method in brief: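 Compounds, titrated 4-fold from a 50 μM top concentration, were added with Ursolic acid to HEK293 cells carrying a RORγt-LBD plasmid and a reporter plasmid. After 24 h at 37° C, dual firefly/Renilla luciferase readout; four-parameter curves gave EC50 and maximal activation (Amax).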

RORγt-LBD = target: T2, RORγt-LBD (Homo sapiens, UniProt P51449); test: Time-resolved fluorescence resonance energy-transfer assay (TR-FRET), co-activator peptide recruitment; type: biochemical; design: TR-FRET Biochemical Amax: unit not given here; conditions: for EC50: His-RORγt-LBD 30 nM, SRC peptide 500 nM, agonistic activity, averages of one or more measurements, read-out: TR-FRET Biochemical EC50/; for TR-FRET Biochemical Amax: upper activation limit, His-RORγt-LBD, SRC peptide
T2 sequence (P51449 269-508 limits assumed): T1 sequence (P51449 269-508 limits assumed)
Method in brief: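 This agonist-mode TR-FRET used 30 nM His-tagged RORγt-LBD, 500 nM biotinylated SRC peptide, 0.25 nM Eu-anti-His and 5 nM APC-streptavidin in pH 7.0 Tris/KCl buffer with DTT and Triton. A 7-concentration, 5-fold compound series was incubated at 4 °C overnight plus 1 h at room temperature, and the 665/615 nm signal was read.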

Structure (SMILES)	EC50 (RORγt) [nM]	Cellular Reporter Assay Amax (RORγt)	EC50 (RORγt-LBD) [nM]	TR-FRET Biochemical Amax (RORγt-LBD)
NC(=S)N1CCN2c3ccc(/C=C/c4c(Cl)cccc4C(F)(F)F)cc3N(S(=O)(=O)c3cccc(C(F)(F)F)c3)C[C@@H]2C1 [Example 65, (S,E)-8-(2-chloro-6-(trifluoro-methyl)styryl)-6-((3-(trifluoro-methyl)phenyl)sulfonyl)-1,2,4,4a,5,6-hexahydro-3H-pyrazino [1,2-a]quinoxaline-3-carbothio-amide]	391	2.8	8.4	0.89
C/C(=C\c1ccc2c(c1)N(S(=O)(=O)c1cccc(C(F)(F)F)c1)C[C@@H]1CN(S(N)(=O)=O)CCN21)c1c(F)cccc1Cl [Example 66, (R,E)-8-(2-(2-chloro-6-fluorophenyl)prop-1-en-1-yl)-6-((3-(trifluoromethyl)phenyl)sulfonyl)-1,2,4,4a,5,6-hexahydro-3H-pyrazino[1,2-a]quinoxaline-3-sulfonamide]	523	5.6	33.6	0.99
C/C(=C\c1ccc2c(c1)N(S(=O)(=O)c1cccc(C(F)(F)F)c1)C[C@@H]1CN(C(CO)CO)CCN21)c1c(F)cccc1Cl [Example 69, (S,E)-2-(8-(2-(2-chloro-6-fluorophenyl)prop-1-en-1-yl)-6-((3-(trifluoromethyl)phenyl)sulfonyl)-1,2,4,4a,5,6-hexahydro-3H-pyrazino[1,2-a]quinoxalin-3-yl)propane-1,3-diol]	600	5.8	44.4	1.05
O=S(=O)(c1cccc(C(F)(F)F)c1)N1C[C@@H]2CN(C(CO)CO)CCN2c2ccc(-c3cc(F)cc(OC(F)F)c3)cc21 [Example 70, (S)-2-(8-(3-(difluoromethoxy)-5-fluorophenyl)-6-((3-(trifluorometh-yl)phenyl)sulfonyl)-1,2,4,4a,5,6-hexahydro-3H-pyrazino[1,2-a]quinoxalin-3-yl)propane-1,3-diol]	531	4.2	64.2	0.99
C/C(=C\c1ccc2c(c1)N(S(=O)(=O)c1cccc(C(F)(F)F)c1)C[C@@H]1CN(C(C)(CO)CO)CCN21)c1c(F)cccc1Cl [Example 71, (S,E)-2-(8-(2-(2-chloro-6-fluorophenyl)prop-1-en-1-yl)-6-((3-(trifluoromethyl)phenyl)sulfonyl)-1,2,4,4a,5,6-hexahydro-3H-pyrazino[1,2-a]quinoxalin-3-yl)-2-methylpropane-1,3-diol]	498	3.5	40.5	0.97
C/C(=C\c1ccc2c(c1)N(S(=O)(=O)c1cccc(C(F)(F)F)c1)C[C@@H]1CN(C(C#N)(CO)CO)CCN21)c1c(F)cccc1Cl [Example 73, (S,E)-2-(8-(2-(2-chloro-6-fluorophenyl)prop-1-en-1-yl)-6-((3-(trifluoromethyl)phenyl)sulfonyl)-1,2,4,4a,5,6-hexahydro-3H-pyrazino[1,2-a]quinoxalin-3-yl)-3-hydroxy-2-(hydroxynethyl)propanenitrile]	725	4.6	40	0.96
N#CC(CO)(CO)N1CCN2c3ccc(-c4cc(F)cc(OC(F)F)c4)cc3N(S(=O)(=O)c3cccc(C(F)(F)F)c3)C[C@@H]2C1 [Example 74, (S)-2-(8-(3-(difluoromethoxy)-5-fluorophenyl)-6-((3-(trifluoromethyl)phenyl)sulfonyl)-1,2,4,4a,5,6-hexahydro-3H-pyrazino[1,2-a]quinoxalin-3-yl)-3-hydroxy-2-(hydroxymethyl)propanenitrile]	1040	6.2	45.1	1.20
C/C(=C\c1ccc2c(c1)N(S(=O)(=O)c1cccc(C(F)(F)F)c1)C[C@@H]1CN(C(CO)(CO)C(N)=O)CCN21)c1c(F)cccc1Cl [Example 75, (S,E)-2-(8-(2-(2-chloro-6-fluorophenyl)prop-1-en-1-yl)-6-((3-(trifluoromethyl)phenyl)sulfonyl)-1,2,4,4a,5,6-hexahydro-3H-pyrazino[1,2-a]quinoxalin-3-yl)-3-hydroxy-2-(hydroxymethyl)propanamide]	1190	3.7	55.7	0.87
C/C(=C\c1ccc2c(c1)N(S(=O)(=O)c1cccc(C(F)(F)F)c1)C[C@@H]1CN(C3(C#N)CCC3)CCN21)c1c(F)cccc1Cl [Example 76, (S,E)-1-(8-(2-(2-chloro-6-fluorophenyl)prop-1-en-1-yl)-6-((3-(trifluoromethyl)phenyl)sulfonyl)-1,2,4,4a,5,6-hexahydro-3H-pyrazino[1,2-a]quinoxalin-3-yl)cyclobutane-1-carbonitrile]	1180	3.2	6.54	0.99
N#CC1(N2CCN3c4ccc(-c5cc(F)cc(OC(F)F)c5)cc4N(S(=O)(=O)c4cccc(C(F)(F)F)c4)C[C@@H]3C2)CCC1 [Example 77, (S)-1-(8-(3-(difluoromethoxy)-5-fluorophenyl)-6-((3-(trifluoro-methyl)phenyl)sulfonyl)-1,2,4,4a,5,6-hexahydro-3H-pyra-zino[1,2-a]quinoxalin-3-yl)cyclo-butane-1-carbonitrile]	1470	3.7	18.3	0.95
N#CC1(N2CCN3c4ccc(/C=C/c5c(Cl)cccc5C(F)(F)F)cc4N(S(=O)(=O)c4cccc(C(F)(F)F)c4)C[C@@H]3C2)CCC1 [Example 78, (S,E)-1-(8-(2-chloro-6-(trifluoro-methyl)styryl)-6-((3-(trifluoro-methyl)phenyl)sulfonyl)-1,2,4,4a,5,6-hexahydro-3H-pyra-zino[1,2-a]quinoxalin-3-yl)cyclo-butane-1-carbonitrile]	822	2.4	5.2	0.67

Now those with a lower EC50 (RORγt), led by results:

EC50 (RORγt) [nM]	Cellular Reporter Assay Amax (RORγt)	EC50 (RORγt-LBD) [nM]	TR-FRET Biochemical Amax (RORγt-LBD)	Structure (SMILES)
158	3.3	19.7	0.87	NS(=O)(=O)N1CCN2c3ccc(-c4cc(F)cc(OC(F)F)c4)cc3N(S(=O)(=O)c3cccc(C(F)(F)F)c3)C[C@@H]2C1 [Example 67, (R)-8-(3-(difluoromethoxy)-5-fluoro-phenyl)-6-((3-(trifluorometh-yl)phenyl)sulfonyl)-1,2,4,4a,5,6-hexahydro-3H-pyrazino[1,2-a]quinoxaline-3-sulfonamide]
151	2.5	30.5	1.03	NS(=O)(=O)N1CCN2c3ccc(/C=C/c4c(Cl)cccc4C(F)(F)F)cc3N(S(=O)(=O)c3cccc(C(F)(F)F)c3)C[C@@H]2C1 [Example 68, (R,E)-8-(2-chloro-6-(trifluorometh-yl)styryl)-6-((3-(trifluorometh-yl)phenyl)sulfonyl)-1,2,4,4a,5,6-hexahydro-3H-pyrazino[1,2-a]quinoxaline-3-sulfonamide]
238	2.6	42.3	0.65	CC(CO)(CO)N1CCN2c3ccc(-c4cc(F)cc(OC(F)F)c4)cc3N(S(=O)(=O)c3cccc(C(F)(F)F)c3)C[C@@H]2C1 [Example 72, (S)-2-(8-(3-(difluoromethoxy)-5-fluorophenyl)-6-((3-(trifluoro-methyl)phenyl)sulfonyl)-1,2,4,4a,5,6-hexahydro-3H-pyra-zino[1,2-a]quinoxalin-3-yl)-2-methylpropane-1,3-diol]
267	2.8	28.2	1.15	C/C(=C\c1ccc2c(c1)N(S(=O)(=O)c1cccc(C(F)(F)F)c1)C[C@@H]1CN(C3(C(N)=O)CCC3)CCN21)c1c(F)cccc1Cl [Example 79, (S,E)-1-(8-(2-(2-chloro-6-fluorophenyl)prop-1-en-1-yl)-6-((3-(trifluoromethyl)phenyl)sulfonyl)-1,2,4,4a,5,6-hexahydro-3H-pyrazino[1,2-a]quinoxalin-3-yl)cyclobutane-1-carboxamide]
209	3.4	39.3	1.04	NC(=O)C1(N2CCN3c4ccc(-c5cc(F)cc(OC(F)F)c5)cc4N(S(=O)(=O)c4cccc(C(F)(F)F)c4)C[C@@H]3C2)CCC1 [Example 80, (S)-1-(8-(3-(difluoromethoxy)-5-fluorophenyl)-6-((3-(trifluoro-methyl)phenyl)sulfonyl)-1,2,4,4a,5,6-hexahydro-3H-pyrazino[1,2-a]quinoxalin-3-yl)cyclobutane-1-carboxamide]

Source: patent US20220009894A1, “1,2,3,4-TETRAHYDROQUINOXALINE DERIVATIVE, PREPARATION METHOD THEREFOR AND APPLICATION THEREOF” (Abbisko Therapeutics Co., Ltd., priority 2019, published 2022)
